Laboratory results reported in patent publication US12350270B2, “Antimalarial agents” (Merck Sharp & Dohme LLC, priority 2019, dated 2025).
pEC50: −log10 of the molar value.

What follows are compounds tested on parasites (ring stage, in human red blood cell culture) (assay: Parasite LDH growth assay (antiparasite potency, Parasite Assay)). Conditions: 0.7% rings, 2% haematocrit, 72 hours at 37° C., LDH readout of parasite growth.
Format: cell-based, Plasmodium falciparum
Summary of the method: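 Ring-stage parasites at 0.7% parasitemia and 2% haematocrit, in RPMI-Hepes/bicarbonate with 5% heat-inactivated human serum and 0.5% albumax, were added to compound-containing medium. Cultures grew 72 h at 37 °C in gassed humidified boxes. Plates were then frozen overnight at −80 °C, thawed 4 h, and growth was measured by LDH assay.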

**Q.** `CCC1(CC)CC(=O)N(C2c3cc(C(=O)N[C@@H]4c5ccccc5C[C@H]4O)ccc3OC2(C)C)C(=N)N1` (stereo partly drawn) [Example 127B, 3-(4,4-diethyl-2-imino-6-oxo-hexahydropyrimidin-1-yl)-N-[(1R,2R)-2-hydroxyindan-1-yl]-2,2-dimethyl-3H-benzofuran-5-carboxamide] was tested. Which pEC50 did it give?
**A.** Its pEC50 is 6.65.

**Q.** With `CCC1(CC)CC(=O)N([C@@H]2CCOc3ccc(C(=O)NC4c5ccc(OC)cc5OCC4(C)O)cc32)C(=N)N1` (single isomer, unassigned) [Example 258C] as the compound, how does the pEC50 read?
**A.** The pEC50 was 6.65.

**Q.** `CCC1(CC)CC(=O)N([C@@H]2CCOc3ccc(C(=O)NC4c5ccccc5CC4(O)C(F)(F)F)cc32)C(=N)N1` (single isomer, unassigned) [Example 272D] was tested. Which pEC50 did it give?
**A.** The pEC50 was 8.64.

**Q.** `COCC1(C)Oc2ccc(C(=O)N[C@H]3CC(C)(C)Oc4ccccc43)cc2C1N1C(=N)NC(C)(C)CC1=O` (single isomer, unassigned) [Example 214B] was tested. Which pEC50 did it give?
**A.** Its pEC50 is 6.59.

**Q.** How did the pEC50 turn out when `CCC1(CC)CC(=O)N([C@H]2c3cc(C(=O)N[C@@H]4c5ccccc5OC(C)(C)[C@H]4O)ccc3OCC2OC)C(=N)N1` (stereo partly drawn) [Example 67A, (3R,4S)-4-(4,4-diethyl-2-imino-6-oxotetrahydropyrimidin-1(2H)-yl)-N-((3S,4R)-3-hydroxy-2,2-dimethylchroman-4-yl)-3-methoxychromane-6-carboxamide] was run?
**A.** Its pEC50 is 6.77.

**Q.** With `CCC1(CC)CC(=O)N([C@@H]2CCOc3ccc(C(=O)NC4c5ccccc5CC4(O)C(F)(F)F)cc32)C(=N)N1` (single isomer, unassigned) [Example 272B] as the compound, how does the pEC50 read?
**A.** The pEC50 was 7.84.

**Q.** With `COCC1(C)CC(N2C(=N)NC(C)(C)CC2=O)c2cc(C(=O)N[C@@H]3c4ccccc4OC(C)(C)[C@H]3O)ccc2O1` (single isomer, unassigned) [Example 282B] as the compound, how does the pEC50 read?
**A.** Its pEC50 is 7.39.

**Q.** With `CCC1(CC)CC(=O)N([C@@H]2CCOc3ccc(C(=O)N[C@@H]4c5ccccc5OC(C(F)(F)F)C4O)cc32)C(=N)N1` (single isomer, unassigned) [Example 32B] as the compound, how does the pEC50 read?
**A.** Its pEC50 is 6.54.

Same assay, conditions: Plasmodium falciparum, Erythrocyte, 72 h, 0.7% rings, 2% haematocrit, 72 hours at 37° C., LDH readout of parasite growth

**Q.** With `C[C@@H]1C[C@@H](N2C(=N)NC(C)(C)CC2=O)c2cc(C(=O)N[C@@H]3c4ccccc4OC[C@@]3(C)O)ccc21` [Example 104, (1R,3R)-N-[(3S,4R)-3-hydroxy-3-methyl-chroman-4-yl]-3-(2-imino-4,4-dimethyl-6-oxo-hexahydropyrimidin-1-yl)-1-methyl-indane-5-carboxamide] as the compound, how does the pEC50 read?
**A.** Its pEC50 is 8.30.

**Q.** With `CC[C@]1(C)CC(=O)N([C@@H]2CCOc3ccc(C(=O)NC4c5cc(F)ccc5OCC4O)cc32)C(=N)N1` (stereo partly drawn) [Example 151, (4R)-4-[(4R)-4-ethyl-2-imino-4-methyl-6-oxo-hexahydropyrimidin-1-yl]-N-(6-fluoro-3-hydroxy-chroman-4-yl)chromane-6-carboxamide] as the compound, how does the pEC50 read?
**A.** Its pEC50 is 8.27.

**Q.** `C[C@@H]1C[C@@H](N2C(=N)NC(C)(C)CC2=O)c2cc(C(=O)N[C@@H]3c4ccccc4OC[C@]3(C)O)ccc21` [Example 103, (1R,3R)-N-[(3R,4R)-3-hydroxy-3-methyl-chroman-4-yl]-3-(2-imino-4,4-dimethyl-6-oxo-hexahydropyrimidin-1-yl)-1-methyl-indane-5-carboxamide] was tested. Which pEC50 did it give?
**A.** The pEC50 was 8.21.

**Q.** How did the pEC50 turn out when `CC1(C)CC(=O)N([C@@H]2CC(F)(F)c3ccc(C(=O)N[C@@H]4c5ccccc5OC(C)(C)[C@H]4O)cc32)C(=N)N1` [Example 199, (3R)-1,1-difluoro-N-[(3S,4R)-3-hydroxy-2,2-dimethyl-chroman-4-yl]-3-(2-imino-4,4-dimethyl-6-oxo-hexahydropyrimidin-1-yl)indane-5-carboxamide] was run?
**A.** The pEC50 was 8.96.

**Q.** `CC1(C)CC(=O)N([C@@H]2CCOc3ccc(C(=O)N[C@@H]4c5cc(F)ccc5OC(C)(C)[C@H]4O)cc32)C(=N)N1` [Example 189, (4R)-N-[(3S,4R)-6-fluoro-3-hydroxy-2,2-dimethyl-chroman-4-yl]-4-(2-imino-4,4-dimethyl-6-oxo-hexahydropyrimidin-1-yl)chromane-6-carboxamide] was tested. Which pEC50 did it give?
**A.** Its pEC50 is 9.00.

**Q.** With `CCC1(CC)CC(=O)N([C@@H]2CCOc3c(Cl)cc(C(=O)N[C@H]4c5ccccc5OC(C)(C)[C@@H]4O)cc32)C(=N)N1` [Example 29B, (R)-8-chloro-4-(4,4-diethyl-2-imino-6-oxotetrahydropyrimidin-1(2H)-yl)-N-((3R,4S)-3-hydroxy-2,2-dimethylchroman-4-yl)chromane-6-carboxamide] as the compound, how does the pEC50 read?
**A.** Its pEC50 is 7.40.

**Q.** How did the pEC50 turn out when `CC[C@]1(C)CC(=O)N([C@@H]2CCOc3ccc(C(=O)N[C@H]4C[C@H](COC(F)F)Oc5ccccc54)cc32)C(=N)N1` [Example 269, (4R)-N-[(2R,4S)-2-(difluoromethoxymethyl)chro-man-4-yl]-4-[(4R)-4-ethyl-2-imino-4-methyl-6-oxo-hexahydropyrimidin-1-yl]chromane-6-carboxamide] was run?
**A.** Its pEC50 is 8.54.

**Q.** With `CCC1(CC)CC(=O)N([C@@H]2CCOc3ccc(C(=O)N[C@H]4C[C@H](C(F)(F)F)Oc5ccccc54)cc32)C(=N)N1` [Example 6A, (R)-4-(4,4-diethyl-2-imino-6-oxotetrahydropyrimidin-1(2H)-yl)-N-((2R,4S)-2-(trifluoromethyl)chroman-4-yl)chromane-6-carboxamide] as the compound, how does the pEC50 read?
**A.** The pEC50 was 8.96.

**Q.** How did the pEC50 turn out when `CC(C)[C@]1(C)CC(=O)N([C@@H]2CCOc3ccc(C(=O)N[C@H]4CC(C)(C)Oc5ccccc54)cc32)C(=N)N1` [Example 10A, (R)-N-((S)-2,2-dimethylchroman-4-yl)-4-((S)-2-imino-4-isopropyl-4-methyl-6-oxotetrahydropyrimidin-1(2H)-yl)chromane-6-carboxamide] was run?
**A.** Its pEC50 is 9.30.

**Q.** How did the pEC50 turn out when `CCC1(CC)CC(=O)N([C@H]2c3cc(C(=O)N[C@@H]4c5ccccc5OC(C)(C)[C@H]4O)ccc3OC[C@]2(C)OC)C(=N)N1` [Example 296, (3R,4S)-4-(4,4-diethyl-2-imino-6-oxo-hexahydropyrimidin-1-yl)-N-[(3S,4R)-3-hydroxy-2,2-dimethyl-chroman-4-yl]-3-methoxy-3-methyl-chromane-6-carboxamide] was run?
**A.** The pEC50 was 9.52.

**Q.** With `CC1(C)CC(=O)N(C2c3cc(C(=O)N[C@@H]4c5ccccc5C[C@H]4O)ccc3OC2(C)C)C(=N)N1` (stereo partly drawn) [Example 91, N-[(1R,2R)-2-hydroxyindan-1-yl]-3-(2-imino-4,4-dimethyl-6-oxo-hexahydropyrimidin-1-yl)-2,2-dimethyl-3H-benzofuran-5-carboxamide] as the compound, how does the pEC50 read?
**A.** Its pEC50 is 7.34.

**Q.** With `CCC1(CC)CC(=O)N([C@@H]2CCOc3ccc(C(=O)N[C@@H]4c5cc(F)ccc5C[C@H]4O)cc32)C(=N)N1` [Example 148, (4R)-4-(4,4-diethyl-2-imino-6-oxo-hexahydropyrimidin-1-yl)-N-[(1R,2R)-6-fluoro-2-hydroxy-indan-1-yl]chromane-6-carboxamide] as the compound, how does the pEC50 read?
**A.** Its pEC50 is 8.57.

**Q.** How did the pEC50 turn out when `CCC1(CC)CC(=O)N([C@@H]2CC3(COC3)Oc3ccc(C(=O)N[C@@H]4c5ccccc5OC(C)(C)[C@H]4O)cc32)C(=N)N1` [Example 24A, (R)-4-(4,4-diethyl-2-imino-6-oxotetrahydropyrimidin-1(2H)-yl)-N-((3S,4R)-3-hydroxy-2,2-dimethylchroman-4-yl)spiro[chromane-2,3′-oxetane]-6-carboxamide] was run?
**A.** Its pEC50 is 8.03.

**Q.** How did the pEC50 turn out when `CCC1(CC)CC(=O)N([C@H]2c3cc(C(=O)N[C@@H]4c5ccccc5C(F)(F)[C@H]4O)ccc3O[C@@]2(C)COC)C(=N)N1` [Example 290, (2R,3S)-3-(4,4-diethyl-2-imino-6-oxo-hexahydropyrimidin-1-yl)-N-[(1R,2S)-3,3-difluoro-2-hydroxy-indan-1-yl]-2-(methoxymethyl)-2-methyl-3H-benzofuran-5-carboxamide] was run?
**A.** Its pEC50 is 9.52.

**Q.** How did the pEC50 turn out when `CC1(C)CC(=O)N([C@@H]2CCc3ccc(C(=O)N[C@@H]4c5ccccc5OC(C)(C)[C@H]4O)cc32)C(=N)N1` [Example 98, (3R)-N-[(3S,4R)-3-hydroxy-2,2-dimethyl-chroman-4-yl]-3-(2-imino-4,4-dimethyl-6-oxo-hexahydropyrimidin-1-yl)indane-5-carboxamide] was run?
**A.** The pEC50 was 8.82.

**Q.** `CCC1(CC)CC(=O)N(C2CC(C(=O)N(C)C)Oc3ccc(C(=O)N[C@@H]4c5ccccc5OC[C@@]4(C)O)cc32)C(=N)N1` (stereo partly drawn) [Example 303, 4-(4,4-diethyl-2-imino-6-oxo-hexahydropyrimidin-1-yl)-N6-[(3S,4R)-3-hydroxy-3-methyl-chroman-4-yl]-N2,N2-dimethyl-chromane-2,6-dicarboxamide] was tested. Which pEC50 did it give?
**A.** The pEC50 was 7.29.

**Q.** `CC1(C)CC(=O)N(C2c3cc(C(=O)N[C@H]4CC(C)(C)Oc5ccccc54)ccc3OC2(C)C)C(=N)N1` (stereo partly drawn) [Example 134, N-[(4S)-2,2-dimethylchroman-4-yl]-3-(2-imino-4,4-dimethyl-6-oxo-hexahydropyrimidin-1-yl)-2,2-dimethyl-3H-benzofuran-5-carboxamide] was tested. Which pEC50 did it give?
**A.** The pEC50 was 8.06.

**Q.** With `CC[C@]1(C)CC(=O)N([C@@H]2c3cc(C(=O)N[C@@H]4c5ccccc5OC(C)(C)[C@H]4O)ccc3C[C@H]2C)C(=N)N1` [Example 167, (2R,3S)-3-[(4R)-4-ethyl-2-imino-4-methyl-6-oxo-hexahydropyrimidin-1-yl]-N-[(3S,4R)-3-hydroxy-2,2-dimethyl-chroman-4-yl]-2-methyl-indane-5-carboxamide] as the compound, how does the pEC50 read?
**A.** The pEC50 was 6.60.

**Q.** How did the pEC50 turn out when `CCC1(CC)CC(=O)N([C@@H]2CCOc3ccc(C(=O)N[C@H]4CC(C)(C)Oc5ccc(F)cc54)cc32)C(=N)N1` [Example 7A, (R)-4-(4,4-diethyl-2-imino-6-oxotetrahydropyrimidin-1(2H)-yl)-N-((S)-6-fluoro-2,2-dimethylchroman-4-yl)chromane-6-carboxamide] was run?
**A.** Its pEC50 is 9.40.

**Q.** How did the pEC50 turn out when `CCC1(CC)CC(=O)N([C@H]2c3cc(C(=O)N[C@@H]4c5ccccc5C[C@@]4(C)O)ccc3OC2(C)C)C(=N)N1` [Example 163, (3S)-3-(4,4-diethyl-2-imino-6-oxo-hexahydropyrimidin-1-yl)-N-[(1R,2R)-2-hydroxy-2-methyl-indan-1-yl]-2,2-dimethyl-3H-benzofuran-5-carboxamide] was run?
**A.** The pEC50 was 8.08.

**Q.** With `CC1(C)CC(=O)N([C@@H]2CCOc3ccc(C(=O)N[C@@H]4c5ccccc5C[C@H]4O)cc32)C(=N)N1` [Example 61A, (R)-N-((1R,2R)-2-hydroxy-2,3-dihydro-1H-inden-l-yl)-4-(2-imino-4,4-dimethyl-6-oxotetrahydropyrimidin-1(2H)-yl)chromane-6-carboxamide] as the compound, how does the pEC50 read?
**A.** The pEC50 was 8.08.
